target: T1, hFXR (Homo sapiens, UniProt Q96RI1); experiment: In Vitro FXR Assay (TK): TK-ECRE-luc reporter in transfected CV-1 cells; format: cell-based; details: 18 hrs, luminescence, maximum efficacy of <25% of the Fexarmine control classified as '+'
T1 construct: expressed in transfected cells; host or cells: CV-1 cells
T1 sequence (Q96RI1 1-486): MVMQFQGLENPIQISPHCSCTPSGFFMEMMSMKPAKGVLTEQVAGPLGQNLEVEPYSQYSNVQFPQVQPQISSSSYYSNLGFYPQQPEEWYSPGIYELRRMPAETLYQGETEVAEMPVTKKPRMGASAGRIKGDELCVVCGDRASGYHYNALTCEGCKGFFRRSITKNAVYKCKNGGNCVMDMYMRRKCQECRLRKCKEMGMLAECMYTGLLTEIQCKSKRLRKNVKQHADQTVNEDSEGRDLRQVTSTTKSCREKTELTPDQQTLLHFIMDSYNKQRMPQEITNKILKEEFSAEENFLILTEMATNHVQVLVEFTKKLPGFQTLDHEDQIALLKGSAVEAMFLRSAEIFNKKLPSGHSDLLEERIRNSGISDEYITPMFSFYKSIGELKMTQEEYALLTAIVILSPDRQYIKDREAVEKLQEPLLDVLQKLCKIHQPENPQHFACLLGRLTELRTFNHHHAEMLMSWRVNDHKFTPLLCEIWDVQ
T1 sequence (P19793 1-462 partner): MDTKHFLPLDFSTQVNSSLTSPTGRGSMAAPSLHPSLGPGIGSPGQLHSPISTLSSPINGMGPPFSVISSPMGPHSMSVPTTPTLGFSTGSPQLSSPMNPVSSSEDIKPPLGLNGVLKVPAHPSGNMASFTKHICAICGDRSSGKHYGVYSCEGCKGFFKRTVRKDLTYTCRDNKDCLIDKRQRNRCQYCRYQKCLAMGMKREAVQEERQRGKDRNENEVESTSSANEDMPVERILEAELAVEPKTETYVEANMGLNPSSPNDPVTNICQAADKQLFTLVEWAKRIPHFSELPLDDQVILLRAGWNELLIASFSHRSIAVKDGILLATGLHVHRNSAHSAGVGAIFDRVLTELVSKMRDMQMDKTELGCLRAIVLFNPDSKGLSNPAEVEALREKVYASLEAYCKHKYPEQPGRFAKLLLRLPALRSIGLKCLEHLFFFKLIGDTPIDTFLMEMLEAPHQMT
Method in brief: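 Luciferase luminescence read-out from lysed CV-1 cells transiently co-expressing hFXR and hRXR with a TK-ECRE-luc reporter (pCMX-YFP co-transfected). Compound exposure lasted 18 h at 37 °C, 5% CO2, in medium containing charcoal super-stripped serum.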

Row | SMILES | EC50 [µM]
1 | CNC(=O)O[C@H]1CC[C@H](C(=O)N(C[C@H]2CC[C@H](c3ccc(OC)c(C)n3)CC2)c2cccc(-c3cnn(C(C)(C)C)c3)c2)CC1 [Compound 5.20, trans-4-((3-(1-(tert-Butyl)-1H-pyrazol-4-yl)phenyl)((trans-4-(5-methoxy-6-methylpyridin-2-yl)cyclohexyl)methyl)carbamoyl)cyclohexyl methylcarbamate] | ≤ 0.25
2 | COc1ccc([C@H]2CC[C@H](CN(c3cccc(-c4cnn(C5CC5)c4)c3)C(=O)[C@H]3CC[C@H](OC(=O)NCCCCN(C)C)CC3)CC2)cc1C [Compound 4.20, trans-4-((3-(1-Cyclopropyl-1H-pyrazol-4-yl)phenyl)((trans-4-(4-methoxy-3-methylphenyl)cyclohexyl)methyl)carbamoyl)cyclohexyl (4-(dimethylamino)butyl)carbamate] | ≤ 0.25
3 | CNC(=O)O[C@H]1CC[C@H](C(=O)N(C[C@H]2CC[C@H](c3ccc(OC)c(C)c3)CC2)c2cc(-c3ccc(N(C)C)nc3)ccn2)CC1 [Compound 5.40, trans-4-((6-(Dimethylamino)-[3,4′-bipyridin]-2′-yl)((trans-4-(4-methoxy-3-methylphenyl)cyclohexyl)methyl)carbamoyl)cyclohexyl methylcarbamate] | ≤ 0.25
4 | COc1ccc([C@H]2CC[C@H](CN(c3cccc(-c4cnn(C5CC5)c4)c3)C(=O)[C@H]3CC[C@H](OC(=O)N4CC(O)C4)CC3)CC2)cc1C [Compound 4.25, trans-4-((3-(1-Cyclopropyl-1H-pyrazol-4-yl)phenyl)((trans-4-(4-methoxy-3-methylphenyl)cyclohexyl)methyl)carbamoyl)cyclohexyl 3-hydroxyazetidine-1-carboxylate] | ≤ 0.25
5 | COc1ccc([C@H]2CC[C@H](CN(c3cccc(-c4coc(C(C)C)n4)c3)C(=O)[C@H]3CC[C@H](OC(=O)NCCO)CC3)CC2)cc1C [Compound 6.47, trans-4-((3-(2-Isopropyloxazol-4-yl)phenyl)((trans-4-(4-methoxy-3-methylphenyl)cyclohexyl)methyl)carbamoyl)cyclohexyl (2-hydroxyethyl) carbamate] | ≤ 0.25
6 | COc1ccc([C@H]2CC[C@H](CN(c3cccc(-c4cnn(C5CC5)c4)c3)C(=O)[C@H]3CC[C@H](OC(=O)NCCCN(C)C)CC3)CC2)cc1C [Compound 4.11, trans-4-((3-(1-Cyclopropyl-1H-pyrazol-4-yl)phenyl)((trans-4-(4-methoxy-3-methylphenyl)cyclohexyl)methyl)carbamoyl)cyclohexyl (3-(dimethylamino)propyl)carbamate] | ≤ 0.25
7 | CNC(=O)O[C@H]1CC[C@H](C(=O)N(C[C@H]2CC[C@H](c3ccc(OC)c(C#N)n3)CC2)c2cc(-c3cnn(C(C)C)c3)ccn2)CC1 [Compound 5.26, trans-4-(((trans-4-(6-Cyano-5-methoxypyridin-2-yl)cyclohexyl)methyl)(4-(1-isopropyl-1H-pyrazol-4-yl)pyridin-2-yl)carbamoyl)cyclohexyl methylcarbamate] | ≤ 0.25
8 | COc1ccc([C@H]2CC[C@H](CN(c3cccc(-c4cnn(C5CC5)c4)c3)C(=O)[C@H]3CC[C@H](OC(=O)NC[C@H](O)CO)CC3)CC2)cc1C [Compound 6.12, trans-4-((3-(1-Cyclopropyl-1H-pyrazol-4-yl)phenyl)((trans-4-(4-methoxy-3-methylphenyl)cyclohexyl)methyl)carbamoyl)cyclohexyl ((S)-2,3-dihydroxypropyl)carbamate] | ≤ 0.25
9 | COc1ccc(C23CCC(CN(c4cccc(-c5cnn(C6CC6)c5)c4)C(=O)[C@H]4CC[C@H](OC(N)=O)CC4)(CC2)CC3)cc1C [Compound 1.08, 4-((3-(1-Cyclopropyl-1H-pyrazol-4-yl)phenyl)((4-(4-methoxy-3-methylphenyl)bicyclo[2.2.2]octan-1-yl)methyl)carbamoyl)cyclohexyl trans-carbamate] | ≤ 0.25

The next lines start with the values.

Row | EC50 [µM] | SMILES
10 | ≤ 0.25 | COc1ccc([C@H]2CC[C@H](CN(c3cc(-c4coc(C5CC5)n4)ccn3)C(=O)[C@H]3CC[C@H](CNC(=O)C4CCC4)CC3)CC2)nc1C [Compound 30.04, trans-4-(Cyclobutanecarboxamidomethyl)-N-(4-(2-cyclopropyloxazol-4-yl)pyridin-2-yl)-N-((trans-4-(5-methoxy-6-methylpyridin-2-yl)cyclohexyl)methyl) cyclohexanecarboxamide]
11 | ≤ 0.25 | COc1ccc([C@H]2CC[C@H](CN(c3cc(-c4cnn(C(C)C)c4)ccn3)C(=O)[C@H]3CC[C@H](CC(=O)O)CC3)CC2)nc1C [Compound 17.25, 2-(trans-4-((4-(1-Isopropyl-1H-pyrazol-4-yl)pyridin-2-yl)((trans-4-(5-methoxy-6-methylpyridin-2-yl)cyclohexyl)methyl)carbamoyl)cyclohexyl) acetic acid]
12 | ≤ 0.25 | COc1ccc([C@H]2CC[C@H](CN(c3cccc(-c4coc(C5CC5)n4)c3)C(=O)[C@H]3CC[C@H](C(=O)O)CC3)CC2)nc1C#N [Compound 18.05, trans-4-(((trans-4-(6-Cyano-5-methoxypyridin-2-yl)cyclohexyl)methyl)(3-(2-cyclopropyloxazol-4-yl)phenyl)carbamoyl) cyclohexanecarboxylic acid]
13 | ≤ 0.25 | COc1ccc([C@H]2CC[C@H](CN(c3cccc(-c4cnn(C5CC5)c4)c3)C(=O)[C@H]3CC[C@H](NC(=O)CO)CC3)CC2)cc1C [Compound 26.03, trans-N-(3-(1-Cyclopropyl-1H-pyrazol-4-yl)phenyl)-4-(2-hydroxyacetamido)-N-((trans-4-(4-methoxy-3-methylphenyl)cyclohexyl)methyl) cyclohexanecarboxamide]
14 | ≤ 0.25 | COc1ccc([C@H]2CC[C@H](CN(c3cccc(-c4cnn(C(C)C)c4)c3)C(=O)[C@H]3CC[C@H](NC(C)=O)CC3)CC2)cc1C [Compound 26.10, trans-4-Acetamido-N-(3-(1-isopropyl-1H-pyrazol-4-yl)phenyl)-N-((trans-4-(4-methoxy-3-methylphenyl)cyclohexyl)methyl) cyclohexanecarboxamide]
15 | ≤ 0.25 | COc1ccc([C@H]2CC[C@H](CN(c3cc(-c4cnn(C(C)C)c4)ccn3)C(=O)[C@H]3CC[C@H](NC(=O)CO)CC3)CC2)cc1C [Compound 26.35, trans-4-(2-Hydroxyacetamido)-N-(4-(1-isopropyl-1H-pyrazol-4-yl)pyridin-2-yl)-N-((trans-4-(4-methoxy-3-methylphenyl)cyclohexyl)methyl) cyclohexanecarboxamide]
16 | ≤ 0.25 | COc1ccc([C@H]2CC[C@H](CN(c3cc(-c4cnn(C5CC5)c4)ccn3)C(=O)[C@H]3CC[C@H](NC(C)=O)CC3)CC2)cc1C [Compound 26.30, trans-4-Acetamido-N-(4-(1-cyclopropyl-1H-pyrazol-4-yl)pyridin-2-yl)-N-((trans-4-(4-methoxy-3-methylphenyl)cyclohexyl)methyl) cyclohexanecarboxamide]
17 | ≤ 0.25 | COc1ccc([C@H]2CC[C@H](CN(c3cccc(-c4cnc(C5CC5)s4)c3)C(=O)[C@H]3CC[C@H](C(=O)O)CC3)CC2)cc1Cl [Compound 17.03, trans-4-(((trans-4-(3-Chloro-4-methoxyphenyl)cyclohexyl)methyl)(3-(2-cyclopropylthiazol-5-yl)phenyl)carbamoyl)cyclohexanecarboxylic acid]
18 | ≤ 0.25 | CCOC(=O)C[C@H]1CC[C@H](C(=O)N(C[C@H]2CC[C@H](c3ccc(OC)c(C)n3)CC2)c2cc(-c3cnn(C4CC4)c3)ccn2)CC1 [Compound 18.18, Ethyl 2-(trans-4-((4-(1-cyclopropyl-1H-pyrazol-4-yl)pyridin-2-yl)((trans-4-(5-methoxy-6-methylpyridin-2-yl)cyclohexyl)methyl)carbamoyl)cyclohexyl)acetate]
19 | ≤ 0.25 | COC(=O)NCCNC(=O)O[C@H]1CC[C@H](C(=O)N(C[C@H]2CC[C@H](c3ccc(OC)c(C)c3)CC2)c2cccc(-c3cnn(C4CC4)c3)c2)CC1 [Compound 26.25, trans-4-((3-(1-Cyclopropyl-1H-pyrazol-4-yl)phenyl)((trans-4-(4-methoxy-3-methylphenyl)cyclohexyl)methyl)carbamoyl)cyclohexyl methyl ethane-1,2-diyldicarbamate]
20 | ≤ 0.25 | COc1ncc(-c2cccc(N(C[C@H]3CC[C@H](c4ccc(OC)c(C)c4)CC3)C(=O)[C@H]3CC[C@H](C(=O)O)CC3)c2)s1 [Compound 17.01, trans-4-(((trans-4-(4-Methoxy-3-methylphenyl)cyclohexyl)methyl)(3-(2-methoxythiazol-5-yl)phenyl)carbamoyl)cyclohexanecarboxylic acid]

— US20220089575A1, “FARNESOID X RECEPTOR AGONISTS AND USES THEREOF” (Metacrine, Inc., priority 2017, published 2022)
